Assay results taken from patent US20230220206A1, “REJUVENATING AGENTS FOR ASPHALT RECYCLING” (BASF SE, priority 2020, published 2023).

What was measured:
[1] = MSCR elastic recovery of rejuvenated polymer-modified bitumen; assay type: physicochemical; conditions: Olexobit 45 + 5% compound
[2] = assay type: physicochemical; conditions: bitumen extracted from RAP + 5% compound
[3] = Low temperature performance, bending beam rheometer (BBR) at −16° C.; assay type: physicochemical; conditions: bitumen 20/30 + 5% compound
Protocol: Different bitumen samples were rejuvenated as in Example 1, and the BBR values S (flexural creep stiffness) and m […] were evaluated at −16° C. The results were compared to the not rejuvenated bitumen sample as well as to the bitumen rejuvenated with the benchmark RheoFalt® HP-AM (Comp. 1.3).

[4] = Softening point of rejuvenated aged bitumen; assay type: physicochemical; conditions: aged bitumen 50/70 BP + 5% compound
[5] = MSCR test, percentage elastic recovery; assay type: physicochemical; conditions: bitumen 20/30 + 5% compound

MSCR % Rec. (0.1 kPa) ([1]; 0.1 kPa): 15%
MSCR % Rec. (1.6 kPa) ([1]; 1.6 kPa): 4%
MSCR % Rec. (3.2 kPa) ([1]; 3.2 kPa): 1%
η(135° C.) [mPas] [2]: 1,100 mPas
S-value [MPa] (flexural creep stiffness) [3]: 105 MPa
m-value [3]: 0.43
SP [° C.] [4]: 54.0 °C
MSCR % Rec. (0.1 kPa) ([5]; 0.1 kPa): 8%
MSCR % Rec. (1.6 kPa) ([5]; 1.6 kPa): 2%
MSCR % Rec. (3.2 kPa) ([5]; 3.2 kPa): 1%
Substance: Polypropylenglycol bis glycidylether
